The text below walks through data of ChEMBL document CHEMBL1148047, “Two steroidal alkaloids from a sponge, Corticium sp” (J Nat Prod, 1994).

In brackets after ≈: the same amount, converted by molar mass.

In one experiment the test system is P388. Put plainly: Cytotoxicity against mouse P388 cells. The format is functional, cell-based.
A further experiment deals with HT-29. The experiment in a line: Cytotoxicity against human HT-29 cells. It counts as functional, cell-based.
For experiment [1], the system named is Lymphocyte. The experiment in a line: Immunomodulatory activity against lymphocytes by mixed lymphocyte reaction method. It counts as functional.
Experiment [2] deals with Lymphocyte. The experiment in a line: Ratio of immunomodulatory activity against lymphocytes by lymphocyte viability assay to immunomodulatory activity against lymphocytes by mixed lymphocyte reaction method. The format is functional.
For experiment [3], the system named is Lymphocyte. The experiment in a line: Immunomodulatory activity against lymphocytes by lymphocyte viability assay. The format is functional.
In the next experiment the test system is Candida albicans. The experiment in a line: Antimicrobial activity against Candida albicans at 50 ug/disk. The following applies: read-out: IZ. It counts as functional.
The subject of another experiment is SK-MEL-28. The experiment in a line: Cytotoxicity against human SK-MEL-28 cells. The format is functional, cell-based.
The subject of another experiment is A549. The experiment in a line: Cytotoxicity against human A549 cells. It counts as functional, cell-based.
In the next experiment the test system is Bacillus subtilis. The experiment in a line: Antimicrobial activity against Bacillus subtilis at 50 ug/disk. It counts as functional. The following applies: read-out: IZ.

With `CC(C)=C1CCN=C1C[C@@H](C)[C@H]1CC[C@H]2C3=CC[C@H]4[C@@H](O)[C@@H](N(C)C)CC[C@]4(C)[C@H]3CC[C@]12C` [LOKYSTEROLAMINE A], the IC50 (usually the point on the concentration scale where inhibition reaches its midpoint) in the experiment on P388 amounted to 0.5 µg/mL (≈ 1.07 µM); in the experiment on HT-29, 1 µg/mL (≈ 2.14 µM); in the experiment with SK-MEL-28, 5 µg/mL (≈ 10.7 µM); with A549 it was 0.5 µg/mL (≈ 1.07 µM). Moreover, the Activity in the experiment with Lymphocyte [1] is 0.13; in the experiment on Lymphocyte [3] it was greater than 25. In the experiment with Lymphocyte [2], the “Ratio IC50” value is reported as greater than 187. The zone of inhibition at 50 µg/disc in the experiment with Candida albicans is 11 mm; in the experiment on Bacillus subtilis it was 19 mm.
On to `CC(=O)N[C@H]1CC[C@]2(C)[C@H]3CC[C@]4(C)[C@@H]([C@H](C)CC5=NCCC5=C(C)C)CC[C@H]4C3=CC[C@H]2[C@H]1O` [LOKYSTEROLAMINE B], for which the IC50 with P388 was 1 µg/mL (≈ 2.08 µM); in the experiment on HT-29, 1 µg/mL (≈ 2.08 µM); with SK-MEL-28 it was greater than 2 µg/mL; in the experiment with A549, 0.5 µg/mL (≈ 1.04 µM). Further, the Activity with Lymphocyte [1] is on record as 0.48; with Lymphocyte [3], greater than 12.5. Further, the results for the zone of inhibition at 50 µg/disc with Candida albicans and in the experiment on Bacillus subtilis were 0 mm and 8 mm, respectively.
